Reference: patent publication EP1077942B1, “CARBOXY SUBSTITUTED CARBOXAMIDE DERIVATIVES AS TACHYKININ RECEPTOR ANTAGONISTS” (Aventis Pharmaceuticals Inc., priority 1998, dated 1999)
Structures can show the parent of a compound that is named as a salt.

How the values were obtained:
NK1 receptor = target: T1, NK1 receptor (Cavia porcellus, UniProt P30547); experiment: Antagonism of iodinated tachykinin binding to NK1 receptor (Example A); conditions: guinea pig lungs membranes; 125I-Bolton Hunter Lys-3 labeled substance P 0.1 nM; mean of several experiments
T1 construct: evaluated in guinea pig lungs (Keystone Biologicals, Cleveland, OH); tissue Keystone Biologicals, Cleveland, OH; host or cells: guinea pig lung membrane homogenate
T1 sequence (P30547 whole entry): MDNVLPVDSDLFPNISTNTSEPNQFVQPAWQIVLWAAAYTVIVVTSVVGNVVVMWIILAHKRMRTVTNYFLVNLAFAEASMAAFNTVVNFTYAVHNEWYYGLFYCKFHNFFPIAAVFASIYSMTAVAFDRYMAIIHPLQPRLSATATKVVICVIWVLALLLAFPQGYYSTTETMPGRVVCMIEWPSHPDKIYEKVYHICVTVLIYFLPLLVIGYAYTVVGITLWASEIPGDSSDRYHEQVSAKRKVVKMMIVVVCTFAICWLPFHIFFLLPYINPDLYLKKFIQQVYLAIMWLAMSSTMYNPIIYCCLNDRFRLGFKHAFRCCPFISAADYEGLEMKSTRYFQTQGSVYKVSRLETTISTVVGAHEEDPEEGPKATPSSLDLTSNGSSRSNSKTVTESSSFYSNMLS
Protocol: (§1) Antagonism of iodinated tachykinin binding to NK1 and NK2 receptors by putative antagonists
(§2) One skilled in the art can determine the NK1 receptor and NK2 receptor affinity in vitro as follows. The NK1 receptor affinity of tachykinin antagonists is evaluated in guinea pig lungs (Keystone Biologicals, Cleveland, OH) and affinity for the NK2 receptor is evaluated in HSKR-1 cells (which are mouse 3T3 fibroblasts expressing the human jejunal NK2 receptor). Tissues or cells are homogenized with a Polytron in 15 volumes of 50 mM Tris-HCl buffer (pH 7.4, 4°C) and centrifuged. The pellet is resuspended in Tris-HCl buffer and is centrifuged; the pellet is washed twice by resuspension. The final pellet is resuspended at a concentration of 40 mg/ml for tissues and 20 mg/ml for cells in incubation buffer and remains at room temperature for at least 15 min prior to use. […] Filter bound radioactivity is quantitated in a gamma counter. Nonspecific binding is defined as binding in the presence of 1 µM substance P or neurokinin A. Specific binding is calculated by subtracting nonspecific binding from total binding. Competition of iodinated SP or NKA binding by test compounds or standards is expressed as a percentage of this maximum binding. […]

[1] = target: T2, human jejunal NK2 receptor (Homo sapiens, UniProt P21452); experiment: Antagonism of iodinated tachykinin binding to NK2 receptor (Example A); conditions: HSKR-1 cells (mouse 3T3 fibroblasts expressing the human jejunal NK2 receptor); 125 iodohistidyl-1-neurokinin A 0.1 nM; mean of several experiments
T2 construct: expressed in transfected cells; host or cells: HSKR-1 cells (mouse 3T3 fibroblasts)
T2 sequence (P21452 1-398): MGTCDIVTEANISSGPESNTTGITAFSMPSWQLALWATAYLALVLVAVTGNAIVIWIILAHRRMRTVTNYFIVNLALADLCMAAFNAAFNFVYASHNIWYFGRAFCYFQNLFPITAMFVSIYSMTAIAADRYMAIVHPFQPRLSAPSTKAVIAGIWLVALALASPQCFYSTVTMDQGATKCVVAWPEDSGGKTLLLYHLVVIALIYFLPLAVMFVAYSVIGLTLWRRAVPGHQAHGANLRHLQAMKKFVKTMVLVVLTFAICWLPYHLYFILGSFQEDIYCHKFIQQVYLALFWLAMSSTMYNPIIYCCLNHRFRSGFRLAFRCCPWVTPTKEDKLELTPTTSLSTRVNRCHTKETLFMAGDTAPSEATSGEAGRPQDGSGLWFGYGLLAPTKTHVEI
Protocol: as §1, §2

## CCOC(=O)CN1CCN(C(=O)C2(c3ccccc3)CCN(CC[C@H](CN(C)C(=O)c3cc(-n4cnnn4)ccc3OC)c3ccc(Cl)c(Cl)c3)CC2)CC1 [Example 1.2, (S)-N-methyl-N-(4-(4-phenyl-4-((4-carboethoxymethylpiperazin-1-yl)carboxamido)piperidin-1-yl) 2-(3,4-dichlorophenyl)butyl)-2-methoxy-5-(1H-tetrazol-1-yl)benzamide hydrochloric acid salt]
NK1 receptor
  IC50: 23 nM
[1]
  IC50: 178 nM
